{"source": "paper PMC3679074", "about": "“Ligand Binding and Signaling of Dendritic Cell Immunoreceptor (DCIR) Is Modulated by the Glycosylation of the Carbohydrate Recognition Domain” (PLoS ONE, 2013)", "key": {"DCIR-Fc [1]": {"target": "T1, DCIR-Fc (Homo sapiens, UniProt Q9UMR7)", "T1 construct": "gene CLEC4A; extracellular domain fused at C terminus to human IgG1 Fc (tag); produced in CHO or CHO Lec8 cells, protein A purified; 'residues 208-689' [sic]", "T1 sequence (Q9UMR7 70-230)": "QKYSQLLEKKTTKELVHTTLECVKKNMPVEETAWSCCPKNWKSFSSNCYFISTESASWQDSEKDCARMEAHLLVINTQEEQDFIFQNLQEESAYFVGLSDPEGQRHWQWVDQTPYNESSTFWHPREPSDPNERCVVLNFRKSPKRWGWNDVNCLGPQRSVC", "assay": "ELISA, biotinylated neoglycoconjugate on immobilized Fc protein", "format": "binding"}, "DCIR-Fc [2]": {"target": "T2, DCIR-Fc (Homo sapiens, UniProt Q9UMR7, N185Q)", "T2 construct": "gene CLEC4A; extracellular domain fused at C terminus to human IgG1 Fc (tag); produced in CHO or CHO Lec8 cells, protein A purified; 'residues 208-689' [sic]", "T2 sequence (Q9UMR7 70-230 N185Q)": "T1 sequence (Q9UMR7 70-230) with N116Q", "assay": "ELISA, soluble Fc protein on coated neoglycoconjugate", "format": "binding", "conditions": "50 µg/ml Fc protein, room temperature; multivalent PAA conjugate; mutant lacks CRD N-glycan"}}, "note": "Substitutions are numbered along the chain they refer to.", "data": [{"molecule": "CC(=O)N[C@H]1C(O)O[C@H](CO)[C@@H](O[C@@H]2O[C@@H](C)[C@@H](O)[C@@H](O)[C@@H]2O)[C@@H]1O[C@@H]1O[C@H](CO)[C@H](O)[C@H](O)[C@H]1O[C@@H]1O[C@@H](C)[C@@H](O)[C@@H](O)[C@@H]1O", "note": "(stereo partly drawn) [Lewis^b]", "values": [{"measurement": "ELISA, biotinylated neoglycoconjugate on immobilized Fc protein", "setting": "DCIR-Fc [1]; pH 7.4, Ca2+/Mg2+, room temperature, labelled compound (multivalent biotinylated PAA conjugate), EGTA-sensitive", "result": "We observed CLR-specific binding of Man3 and Lewis^b to immobilized DCIR-Fc"}, {"measurement": "ELISA, soluble Fc protein on coated neoglycoconjugate", "setting": "DCIR-Fc [2]", "result": "strongly interacted with immobilized Lewis^b and Man3"}]}, {"molecule": "CC(=O)N[C@H]1C(O)O[C@H](CO)[C@@H](O[C@@H]2O[C@@H](C)[C@@H](O)[C@@H](O)[C@@H]2O)[C@@H]1O[C@@H]1O[C@H](CO)[C@H](O)[C@H](OS(=O)(=O)O)[C@H]1O", "note": "(stereo partly drawn) [sulfo-Lewis^a]", "values": [{"measurement": "ELISA, biotinylated neoglycoconjugate on immobilized Fc protein", "setting": "DCIR-Fc [1]; labelled compound (multivalent biotinylated PAA conjugate, 5 µg/ml), EGTA control subtracted", "result": "immobilized glycosylated DCIR-Fc could interact with sulfo-Lewis^a"}]}]}
